Activity calls are given as the source filed them. The calls are words filed in the database; no cut-off is given here.

This is an account of results in ChEMBL document CHEMBL5390251, “Pyrazolidinone-based peptidomimetic SARS-CoV-2 Mpro inhibitors” (Bioorg Med Chem Lett, 2023).

For the first test, the target named is T1, Cathepsin K (Homo sapiens, UniProt P43235).
T1 sequence (P43235 whole entry): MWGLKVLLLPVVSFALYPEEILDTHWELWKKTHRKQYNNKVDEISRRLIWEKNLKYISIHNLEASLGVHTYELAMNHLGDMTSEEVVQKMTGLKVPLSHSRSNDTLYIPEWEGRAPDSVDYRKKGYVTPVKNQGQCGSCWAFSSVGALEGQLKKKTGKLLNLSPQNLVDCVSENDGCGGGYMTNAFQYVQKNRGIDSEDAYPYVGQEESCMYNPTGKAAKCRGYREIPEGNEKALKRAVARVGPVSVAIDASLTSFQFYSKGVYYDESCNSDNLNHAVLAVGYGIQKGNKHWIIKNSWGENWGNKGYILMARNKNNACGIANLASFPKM
In words: Inhibition of human Cathepsin K.
For `O=C(O)C1=C(C(=O)N(Cc2ccccc2)Cc2ccccc2)CN2C[C@H](NC(=O)[C@H](Cc3ccccc3)NC(=O)c3cc4ccccc4[nH]3)C(=O)N12`, half-maximal inhibition (IC50) was put at 64 µM.

The target of a further test is Replicase polyprotein 1ab (Severe acute respiratory syndrome coronavirus 2, UniProt P0DTD1). The test is described as follows: Inhibition of SARS-Cov-2 Main protease by FRET assay.
For `O=C(O)C1=C(C(=O)N(Cc2ccccc2)Cc2ccccc2)CN2C[C@H](NC(=O)[C@H](C[C@@H]3CCNC3=O)NC(=O)[C@H](Cc3ccccc3)NC(=O)c3cc4ccccc4[nH]3)C(=O)N12`, half-maximal inhibition (IC50) required 163 µM.
On the same count and under the same terms, to `O=C(O)C1=C(C(=O)N(Cc2ccccc2)Cc2ccccc2)CN2C[C@H](NC(=O)[C@H](Cc3ccccc3)NC(=O)c3cc4ccccc4[nH]3)C(=O)N12` belongs 45 µM.
With `CCN(CC)C(=O)C1=C(C(=O)O)N2C(=O)[C@@H](NC(=O)[C@H](Cc3ccccc3)NC(=O)c3cc4ccccc4[nH]3)CN2C1`, the IC50 (in general, the concentration that inhibits the measured activity by half) came to 279 µM.
Still for that read-out and setting: to `CC1(C)S[C@@H]2[C@H](NC(=O)[C@H](Cc3ccccc3)NC(=O)c3cc4ccccc4[nH]3)C(=O)N2[C@H]1C(=O)O` belongs 134 µM; to `O=C(N[C@@H](Cc1ccccc1)C(=O)O)c1cc2ccccc2[nH]1`, above 500 µM.
On the same count and under the same terms, then `N[C@H]1CN2CC(C(=O)N(Cc3ccccc3)Cc3ccccc3)=C(C(=O)O)N2C1=O`, with above 500 µM.
On the same count and under the same terms, then `O=C(O)C1=C(C(=O)N2CCCC2)CN2C[C@H](NC(=O)[C@H](Cc3ccccc3)NC(=O)c3cc4ccccc4[nH]3)C(=O)N12`, with 181 µM.
In the case of `O=C(O)C1=C(C(=O)NCc2ccncc2)CN2C[C@H](NC(=O)[C@H](Cc3ccccc3)NC(=O)c3cc4ccccc4[nH]3)C(=O)N12`, inhibition was half-maximal at 201 µM (IC50).
The same measure, in the same setting: to `C[C@H]1[C@H](NC(=O)[C@H](Cc2ccccc2)NC(=O)c2cc3ccccc3[nH]2)C(=O)N1S(=O)(=O)O` belongs above 500 µM; to `O=C(O)C1=C(C(=O)NCc2ccccc2)CN2C[C@H](NC(=O)[C@H](Cc3ccccc3)NC(=O)c3cc4ccccc4[nH]3)C(=O)N12`, 178 µM.
On the same count and under the same terms, then `O=C(N[C@@H](Cc1ccccc1)C(=O)N[C@@H]1CONC1=O)c1cc2ccccc2[nH]1`, with above 500 µM; and `O=C(O)C1=C(Cl)CS[C@@H]2[C@H](NC(=O)[C@H](Cc3ccccc3)NC(=O)c3cc4ccccc4[nH]3)C(=O)N12`, with 90 µM.
The same measure, in the same setting: then `C=CCOC(=O)C1=C(C(=O)O)N2C(=O)[C@@H](NC(=O)[C@H](Cc3ccccc3)NC(=O)c3cc4ccccc4[nH]3)CN2C1`, with 192 µM; and `CN(Cc1ccccc1)C(=O)C1=C(C(=O)O)N2C(=O)[C@@H](NC(=O)[C@H](Cc3ccccc3)NC(=O)c3cc4ccccc4[nH]3)CN2C1`, with above 500 µM.

The target of the next test is Replicase polyprotein 1ab (Severe acute respiratory syndrome coronavirus 2) (UniProt P0DTD1). In words: Inhibition of SARS-Cov-2 Main protease at <=500 uM by FRET assay.
For the compound `CC1(C)[C@H](C(=O)O)N2C(=O)C[C@H]2S1(=O)=O`, the inhibition result is “inactive”.
As for `CCC1C(=O)N(S(C)(=O)=O)CC1C(=O)OC` (racemic; 10), the inhibition entry is “inactive”.
Take `N[C@H]1CN2CC(C(=O)N(Cc3ccccc3)Cc3ccccc3)=C(C(=O)O)N2C1=O`: the inhibition entry was “inactive”.
On the same count and under the same terms, then `C[C@H]1[C@H](N)C(=O)N1S(=O)(=O)O`, with “inactive”; and `NC(=O)[C@@H]1CC[C@@H]2CN1C(=O)N2OS(=O)(=O)O`, with “inactive”.
Same read-out and setting: to `C[C@@H](O)[C@H]1C(=O)N2C(C(=O)O)=C(SCCNC=N)C[C@H]12` belongs “inactive”; to `CCC1C(=O)N(S(C)(=O)=O)CC1C(=O)OC` (racemic; 11), “inactive”.
Same read-out and setting: to `N[C@@H]1CONC1=O` belongs “inactive”; to `N[C@@H]1C(=O)N2C(C(=O)O)=C(Cl)CS[C@H]12`, “inactive”.
For `C[C@@H](O)[C@H]1C(=O)N2C(C(=O)O)=C([C@H]3CCCO3)S[C@H]12`, the inhibition result was “inactive”.
On the same count and under the same terms, then `CC1(C)S[C@@H]2[C@H](N)C(=O)N2[C@H]1C(=O)O`, with “inactive”.

The next test shares this target. In words: Uncompetitive inhibition of SARS-Cov-2 Main protease by Lineweaver-Burk plot analysis.
For the compound `O=C(O)C1=C(C(=O)N(Cc2ccccc2)Cc2ccccc2)CN2C[C@H](NC(=O)[C@H](Cc3ccccc3)NC(=O)c3cc4ccccc4[nH]3)C(=O)N12`, the inhibition entry was “Active”.
